Test results published in ChEMBL document CHEMBL1212934, “Isolation of pandamarilactonine-H from the roots of Pandanus amaryllifolius and synthesis of epi-pandamarilactonine-H” (J Nat Prod, 2010).

Legend:
Type in all cases: functional, cell-based
A549 = test: Cytotoxicity against human A549 cells
HT-29 = test: Cytotoxicity against human HT-29 cells
HCT-116 = test: Cytotoxicity against human HCT116 cells

Measured: IC50

COC(=O)C[C@@H]1CCCN1CCC/C=C1\C=C(C)C(=O)O1
> 5 µg/mL: all assays above

COC(=O)C[C@H]1CCCN1CCC/C=C1\C=C(C)C(=O)O1
> 5 µg/mL: all assays above

COC(=O)C[C@H]1CCCN1CCC/C=C1/C=C(C)C(=O)O1
> 5 µg/mL: all assays above

CC1=C[C@H]([C@H]2CCCN2CCCC[C@@H]2C[C@@H](C)C(=O)O2)OC1=O
> 5 µg/mL: all assays above
